Data: patent publication US9708270B2, “Substituted spiropiperidinyl compounds useful as GPR120 agonists” (Merck Sharp & Dohme Corp., priority 2012, dated 2017)

Each compound was assayed against T1, human GPR120 (Homo sapiens (Human), UniProt Q5NUL3) (assay: FLIPR assay: intracellular calcium in CHO cells expressing human GPR120). Conditions: FLIPR calcium assay, CHO cells expressing human GPR120, agonist action.
Type: cell-based
Description: All compounds were tested under the FLIPR assay unless otherwise indicated.
Primers were synthesized in the domains on the opposite sides of the base sequences of the ORFs of the known GPCR and GPR120 in GenBank Accession NOs. […] The base sequences of the primers used are described below. The restriction enzymes, BamHI and EcoRI, recognition sites were introduced for subcloning, respectively.
As samples for PCR, human small intestine Marathon-ready cDNA (CLONTECH, current corporate name: TaKaRa) and cDMA obtained by reverse transcription of mouse BAT-derived RNA were used for human and mouse GPR120 receptor genes, respectively.
Using KOD Plus (TOYOBO) for PCR, 30 cycles of 94° C. for 2 minutes, 94° C. for 15 seconds, 55° C. for 30 seconds and 68° C. for 1 minute were carried out to effect reaction, followed by addition of 0.5 units of ExTaq (TaKaRa) and incubation at 72° C. for 10 minutes to carry out A-addition reaction to terminals. For mouse PCR, 35 cycles were carried out on the condition of a final DMSO concentration of 2%.
Cloning of amplified PCR products was carried out using pCR2.1-TOPO TA cloning kit (Invitrogen). For verification of base sequences, electrophoresis was carried out using BigDye Terminator Cycle Sequencing Ready Reaction Kit Ver.
The GPR120 receptor genes cloned into pCR2.1-TOPO vectors, into which the restriction enzymes, BamHI and EcoRI, recognition sites were introduced, were excised from the vectors by the enzymes and subcloned into the BamHI and EcoRI recognition sites of eukaryotic expression vector EF1/V5-His B (Invitrogen).
Test 2: Production of Expression Cells
Using Lipofectamine 2000 (Invitrogen), cDNA of GPR120 receptor was transfected into CHO/NFAT-BLA cells, and drug-resistant cells were isolated to obtain GPR120 stable expression strains. The GPR120-expressed CHO cells were cultured in DMEM/F12 medium containing 10% fetal bovine serum, 100 units/ml penicillin, 0.1 mg/ml streptomycin sulfate, 250 μg/ml Zeocin, 500 μg/mL Geneticin and 15 mM HEPES.
Test 3: Measurement of Intracellular Calcium Concentration
To the cells was added the test compound diluted with HBSS solution containing 20 mM HEPES and 2.5 mM probenecid. Variations in the intracellular calcium concentration were measured by Fluorescence Imaging Plate Reader (FLIPR; Molecular Devices) to examine the agonist action, and EC50 values were calculated. […]

T1 sequence (Q5NUL3 whole entry): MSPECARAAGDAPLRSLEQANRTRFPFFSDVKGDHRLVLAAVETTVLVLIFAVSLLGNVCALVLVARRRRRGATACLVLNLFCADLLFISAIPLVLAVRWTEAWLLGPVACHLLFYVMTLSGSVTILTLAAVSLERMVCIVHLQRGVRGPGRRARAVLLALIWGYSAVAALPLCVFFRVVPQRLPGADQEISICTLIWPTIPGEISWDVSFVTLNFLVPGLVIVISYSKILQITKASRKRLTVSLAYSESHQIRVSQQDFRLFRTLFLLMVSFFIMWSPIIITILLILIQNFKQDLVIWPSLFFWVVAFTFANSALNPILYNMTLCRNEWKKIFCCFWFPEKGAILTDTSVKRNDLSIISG

| Structure (SMILES) | EC50 [nM] |
| --- | --- |
| Cc1cc(F)cc(N2CCC3(CCC(CC(=O)O)CC3)CC2)c1Cl [Example 68] | 2860 |
| CN(C)c1cccc(N2CCC3(CCC(CC(=O)O)CC3)CC2)c1 [Example 69] | 2940 |
| Cc1cccc(N2CCC3(CCC(CC(=O)O)CC3)CC2)c1 [Example 70] | 2950 |
| Cc1cc(C#N)cc(N2CCC3(CCC(CC(=O)O)CC3)CC2)c1 [Example 71] | 2960 |
| COc1cc(C)cc(N2CCC3(CCC(CC(=O)O)CC3)CC2)c1 [Example 72] | 3060 |
| O=C(O)CC1CCC2(CC1)CCN(c1cc(C(F)(F)F)ccc1CO)CC2 [Example 73] | 3170 |
| COc1cc(N2CCC3(CCC(CC(=O)O)CC3)CC2)c(F)cn1 [Example 74] | 3420 |
| COCCOc1cc(Cl)cc(N2CCC3(CCC(CC(=O)O)CC3)CC2)c1 [Example 75] | 3630 |
| O=C(O)CC1CCC2(CC1)CCN(c1ccc(-c3ccccc3)cc1)CC2 [Example 77] | 4940 |
| Cc1cccnc1Oc1ccc(C#N)c(N2CCC3(CCC(CC(=O)O)CC3)CC2)c1 [Example 79] | 6570 |
| COCCOc1ccc(Cl)c(N2CCC3(CCC(CC(=O)O)CC3)CC2)c1 [Example 80] | 6970 |
| O=C(O)CCC1CCC2(CC1)CCN(c1cc(OC3CCC3)ccc1F)CC2 [Example 82, 3-(3-(5-Cyclobutoxy-2-fluorophenyl)-3-azaspiro[5.5]undecan-9-yl)propanoic acid] | 1260 |
| O=C(O)CCCC1CCC2(CC1)CCN(c1cc(OC3CCC3)ccc1F)CC2 [Example 83, 4-(3-(5-Cyclobutoxy-2-fluorophenyl)-3-azaspiro[5.5]undecan-9-yl)butanoic acid] | 791 |
| NCCC1CCC2(CC1)CCN(c1cc(OC(F)(F)F)ccc1Cl)CC2 [Example 90, 2-(3-(2-chloro-5-(trifluoromethoxy)phenyl)-3-azaspiro[5.5]undecan-9-yl)ethanamine] | 5610 |
| O=C(O)C[C@@H]1CCC2(CCN(c3cc(OC4CCC4)ccc3F)CC2)OC1 [Example 100] | 4280 |
| COc1cc(Cl)cc(N2CCC3(CC2)CC(CC(=O)O)CO3)c1 (stereo not shown) [Example 102] | 8100 |

The remaining lines, values ahead:

| EC50 [nM] | Structure (SMILES) |
| --- | --- |
| 2500 | Cc1ccc(C#N)cc1N1CCC2(CCC(CC(=O)O)CC2)CC1 [Example 65] |
| 2490 | CC1CC(CC(=O)O)CCC12CCN(c1cc(OC(F)(F)F)ccc1Cl)CC2 (stereo not shown) [Example 89, 2-(3-(2-Chloro-5-(trifluoromethoxy)phenyl)-7-methyl-3-azaspiro[5.5]undecan-9-yl)acetic acid] |
| 2400 | COc1cccc(N2CCC3(CCC(CC(=O)O)CC3)CC2)c1 [Example 64] |
| 2320 | Cc1ccc(F)c(N2CCC3(CCC(CC(=O)O)CC3)CC2)c1 [Example 63] |
| 2260 | O=C(O)CCCC1CCC2(CC1)CCN(c1cc(OC3CCC3)ccc1Cl)CC2 [Example 87] |
| 2150 | O=C(O)CC1CCC2(CC1)CCN(c1cc(OC3CC3)ccc1F)CC2 [Example 62] |
| 2020 | O=C(O)CCCC1CCC2(CC1)CCN(c1cc(OC(F)(F)F)ccc1Cl)CC2 [Example 86] |
| 1960 | O=C(O)CC1CCC2(CC1)CCN(c1cc(OC(F)F)ccc1Cl)CC2 [Example 61] |
| 1900 | O=C(O)CC1CCC2(CCN(c3cccc(OC(F)(F)F)c3)CC2)OC1 (stereo not shown) [Example 95] |
| 1790 | O=C(O)CCC1CCC2(CC1)CCN(c1cc(OC(F)(F)F)ccc1Cl)CC2 [Example 85] |
| 1550 | CC(C)Oc1cc(F)cc(N2CCC3(CCC(CC(=O)O)CC3)CC2)c1 [Example 60] |
| 1530 | O=C(O)C[C@@H]1CCC2(CCN(c3cc(OC4CCC4)ccc3Cl)CC2)OC1 [Example 98] |
| 1490 | O=C(O)CC1CCC2(CC1)CCN(c1cc(OC(F)(F)F)cc(C(F)(F)F)c1)CC2 [Example 59] |
| 1440 | Cc1ccc(C)c(N2CCC3(CCC(CC(=O)O)CC3)CC2)c1 [Example 58] |
| 1350 | O=C(O)CCC1CCC2(CC1)CCN(c1cc(OC3CCC3)ccc1Cl)CC2 [Example 84] |
| 1330 | N#Cc1ccc(OC2CCC2)cc1N1CCC2(CCC(CC(=O)O)CC2)CC1 [Example 57] |
| 1290 | O=C(O)CC1CCC2(CCN(c3cc(OC(F)(F)F)ccc3Cl)CC2)OC1 (stereo not shown) [Example 97] |
| 1220 | CC(C)Oc1cc(OC(F)(F)F)cc(N2CCC3(CCC(CC(=O)O)CC3)CC2)c1 [Example 56] |
| 869 | O=C(O)CC1CCC2(CC1)CCN(c1cc(OC3CC3)ccc1Cl)CC2 [Example 55] |
| 681 | O=C(O)CC1CCC2(CC1)CCN(c1cc(OC(F)(F)F)ccc1O)CC2 [Example 54] |
| 667 | CSc1cc(N2CCC3(CCC(CC(=O)O)CC3)CC2)cc(C(F)(F)F)c1 [Example 53] |
| 641 | CC(C)Oc1cc(Cl)cc(N2CCC3(CCC(CC(=O)O)CC3)CC2)c1 [Example 52] |
| 617 | N#Cc1cc(OC(F)(F)F)cc(N2CCC3(CCC(CC(=O)O)CC3)CC2)c1 [Example 51] |
| 449 | COc1cc(OC(F)(F)F)cc(N2CCC3(CCC(CC(=O)O)CC3)CC2)c1 [Example 49] |

What follows are compounds tested against T1, human GPR120 (assay: IP1 assay (GPR120 assay adapted from Bergsdorf et al.)). Conditions: not given.
Type: cell-based
Source text: The EC50 values for the exemplified compounds are provided in the following examples and in the following tables. • IP1 Assay • IP1 assay results were obtained adapting the GPR120 assay described in C. Bergsdorf, et al., Assay Drug Dev. Technol., 2008, 6(1), 39-53. General Schemes

| EC50 [nM] | Structure (SMILES) |
| --- | --- |
| 220 | N#Cc1ccc(OC(F)(F)F)cc1N1CCC2(CCC(CCC(=O)O)C2)CC1 (stereo not shown) [Example 106] |
| 202 | COc1cc(F)c(N2CCC3(CCC(CCC(=O)O)C3)CC2)cc1OC1CCC1 (stereo not shown) [Example 107] |

| Structure (SMILES) | EC50 [nM] |
| --- | --- |
| O=C(O)CCC1CCC2(CCN(c3cc(OC4CCC4)ccc3Cl)CC2)C1 (stereo not shown) [Example 105, 3-(8-(2-chloro-5-cyclobutoxyphenyl)-8-azaspiro[4.5]decan-2-yl)propanoic acid] | 44.8 |
